In general, Km refers to the concentration of substrate that gives half-maximal velocity.

Series [1] deals with T1, L. salivarius alanine racemase (ALR) (Ligilactobacillus salivarius, UniProt Q1WV14, A131K).
T1 construct: full-length ORF in pET-28a (NdeI/XhoI, own stop codon), N-terminal His tag, tag kept; E. coli BL21-CodonPlus(DE3)-RIPL
The series can be described thus: UPLC activity assay. It is filed as biochemical. Conditions: 20 mM L-alanine; 0.05 mM PLP; pH 7.0 (MES), 30 °C.

In series [2] the target is T2, L. salivarius alanine racemase (ALR) (Ligilactobacillus salivarius, UniProt Q1WV14).
T2 construct: full-length ORF in pET-28a (NdeI/XhoI, own stop codon), N-terminal His tag, tag kept; E. coli BL21-CodonPlus(DE3)-RIPL
T2 sequence (Q1WV14 1-371): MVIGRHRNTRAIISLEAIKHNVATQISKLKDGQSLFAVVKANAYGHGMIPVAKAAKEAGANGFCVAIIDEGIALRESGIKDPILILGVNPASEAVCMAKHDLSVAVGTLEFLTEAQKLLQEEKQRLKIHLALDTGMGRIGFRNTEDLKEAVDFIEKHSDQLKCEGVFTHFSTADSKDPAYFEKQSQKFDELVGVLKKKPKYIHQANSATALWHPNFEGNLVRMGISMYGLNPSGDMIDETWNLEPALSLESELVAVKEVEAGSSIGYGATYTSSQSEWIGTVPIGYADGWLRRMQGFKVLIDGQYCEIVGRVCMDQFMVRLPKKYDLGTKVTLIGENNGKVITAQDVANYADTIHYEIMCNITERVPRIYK
The series is described as follows: UPLC activity assay. Format: biochemical. Particulars: 20 mM L-alanine; 0.05 mM PLP; pH 7.0 (MES), 30 °C; activator.

In series [3] the target is T2, L. salivarius alanine racemase (ALR). The series is described as follows: UPLC activity assay. Format: biochemical. Particulars: 20 mM L-alanine; 0.05 mM PLP; pH 7.0 (MES), 30 °C.
Substrate in series [4]: C[C@H](N)C(=O)O
The series is described as follows: purified protein. Particulars: no acetate, 0.05 mM PLP, pH 7.0 (MES), 30 °C.

For the molecule `O=C(O)CC(=O)C(=O)O` [oxaloacetate], the “relative activity at 1 mM (inhibition)” value in series [1] is “succinate, pyruvate, 2-oxoglutarate, oxaloacetate and aspartate also more strongly inhibited ALR^A131K than ALR”. The same measure, in the same setting: the value for `CC(=O)C(=O)O` [pyruvate] was “succinate, pyruvate, 2-oxoglutarate, oxaloacetate and aspartate also more strongly inhibited ALR^A131K than ALR”. With `CCC(=O)O` [propionate], in series [2], the “relative activity at 1 mM (activation)” value is given as “they strongly activated L. salivarius ALR”. Further, the “relative activity at 1 mM (inhibition)” value in series [1] is “both propionate and butyrate strongly inhibited ALR^A131K”. In the case of `CC(O)C(=O)O` (racemic) [D, L-lactate], the “relative activity at 1 mM (inhibition)” value in series [1] was “ALR and ALR^A131K were both inhibited by D, L-lactate”; in series [3], “ALR and ALR^A131K were both inhibited by D, L-lactate”.

Regarding `CCCC(=O)O` [butyrate], in series [2], the “relative activity at 1 mM (activation)” value was “they strongly activated L. salivarius ALR”. Also, in series [1], the “relative activity at 1 mM (inhibition)” value was “both propionate and butyrate strongly inhibited ALR^A131K”.

B1: L. salivarius alanine racemase (ALR) (Ligilactobacillus salivarius UCC118) (protein)
chain: MVIGRHRNTRAIISLEAIKHNVATQISKLKDGQSLFAVVKANAYGHGMIPVAKAAKEAGANGFCVAIIDEGIALRESGIKDPILILGVNPASEAVCMAKHDLSVAVGTLEFLTEAQKLLQEEKQRLKIHLALDTGMGRIGFRNTEDLKEAVDFIEKHSDQLKCEGVFTHFSTADSKDPAYFEKQSQKFDELVGVLKKKPKYIHQANSATALWHPNFEGNLVRMGISMYGLNPSGDMIDETWNLEPALSLESELVAVKEVEAGSSIGYGATYTSSQSEWIGTVPIGYADGWLRRMQGFKVLIDGQYCEIVGRVCMDQFMVRLPKKYDLGTKVTLIGENNGKVITAQDVANYADTIHYEIMCNITERVPRIYK
For the molecule B1, the Michaelis-Menten constant (Km) in series [4] was found to be 11.5 mM.

B2: L. salivarius alanine racemase (ALR) (Ligilactobacillus salivarius UCC118; A131K) (protein)
chain: MVIGRHRNTRAIISLEAIKHNVATQISKLKDGQSLFAVVKANAYGHGMIPVAKAAKEAGANGFCVAIIDEGIALRESGIKDPILILGVNPASEAVCMAKHDLSVAVGTLEFLTEAQKLLQEEKQRLKIHLKLDTGMGRIGFRNTEDLKEAVDFIEKHSDQLKCEGVFTHFSTADSKDPAYFEKQSQKFDELVGVLKKKPKYIHQANSATALWHPNFEGNLVRMGISMYGLNPSGDMIDETWNLEPALSLESELVAVKEVEAGSSIGYGATYTSSQSEWIGTVPIGYADGWLRRMQGFKVLIDGQYCEIVGRVCMDQFMVRLPKKYDLGTKVTLIGENNGKVITAQDVANYADTIHYEIMCNITERVPRIYK
Take B2: the Km in series [4] is on record as 9.20 mM.

(Values after paper PMC4628008, “Characterization of Lactobacillus salivarius alanine racemase: short-chain carboxylate-activation and the role of A131” (SpringerPlus, 2015).)
